From patent US12263170B2, “Systems and methods for treating cancer” (priority 2015, dated 2025) come the findings set out here.

The subject of experiment [1] is mutant kras/lkb 1 deficient nsclc tumors in transgenic mice. In words: Survival of adenoCre-infected KRasG12D/LKB1 FL/FL/luci mice (FIG. 9). It counts as in vivo. Conditions: Cisplatin once per week 2.5 mg/kg, with or without AZD1775 30 mg/kg three times per week; treated for four weeks; log-rank analysis. Here is the method: Referring to FIG. 9, the investigators transiently infected 6-8 week old KRas^G12D/LKB 1^FL/FL/luci with 5×10^6 P.F.U. of adenoCre via intratracheal inhalation. Mice received scans using the Xenogen IVIS at 8 weeks to identify disease. Mice were then randomized to Cisplatin (once per week, 2.5 mg/kg) or AZD1775 (30 mg/kg, three times per week)+cisplatin and treated for four weeks. Survival was calculated via log-rank analysis. It was observed that the median survival rate of mice receiving Cisplatin was 12 weeks, whereas the median survival rate of mice receiving Cisplatin+AZD1775 was 14 weeks. For this set of experiments, the hazard ratio was 0.3972, while the confidence interval was 0.0605-0.6086.

In the next experiment the test system is A549 cell line. Nature of the experiment: Percent viability with AZD1775, LKB1 rescue vs KDLKB1 transfection (FIG. 2B). It counts as cell-based, human. Conditions: A549 cells with rescue copy of LKB1 compared to control KDLKB1 (non-functional kinase). Here is the method:
FIG. 2B illustrates, in accordance with embodiments herein, the role of LKB1 in the sensitivity of […] to AZD1775. The A549 cell line was transfected with either a rescue copy of LKB1 (“LKB1”) or a copy of LKB1 with a non-functional kinase domain (“KDLKB1”) that produces non-functional LKB1. […] Next, referring to FIGS. 2A-2C, the LKB1 deficient lines discussed above in reference to FIGS. 1A and 1B were assessed for percent viability in the presence of increasing concentrations of AZD1775. Moreover, as all three cell lines were already LKB1 deficient, the inventors wanted to elucidate the role of LKB1 in the sensitivity of these cells to AZD1775. As such, each cell line with transfected with either a rescue copy of LKB1 (referred to as “LKB1” in these figures) or a copy of LKB1 with a non-functional kinase domain (referred to as KDLKB1 in these figures), which would produce non-functional LKB1.

The test system of another experiment is A549 and H2030 cells. Nature of the experiment: Cell signaling molecules after AZD1775 alone and with 2Gy ionizing radiation (FIGS. 4A, 4B). It counts as cell-based, human. Conditions: AZD1775 alone and in combination with 2Gy of ionizing radiation. An excerpt: Next, referring now to FIGS. 4A and 4B, the investigators examined cell signaling molecules in A549 and H2030 cells, including both rescue and control conditions. The investigators treated with AZD1775 alone and in combination with 2Gy of ionizing radiation.

Experiment [2] relates to 3381A murine cells (KRas mutant and LKB1 deficient). Nature of the experiment: Percent viability with AZD1775, LKB1 rescue vs empty vector pBabe (FIG. 2D). It counts as cell-based. Conditions: 3381A cells with rescue copy of LKB1 compared to control empty vector (pBabe). Here is the method:
Referring now to FIG. 2D, a similar experiment was conducted on murine cells that were KRas mutant and LKB1 deficient (3381A cells).

A further experiment deals with H2030 cell line. In words: Percent viability with AZD1775, LKB1 rescue vs KDLKB1 transfection (FIG. 2C). It counts as cell-based, human. Conditions: H2030 cells with rescue copy of LKB1 compared to control KDLKB1 (non-functional kinase). Here is the method:
FIG. 2C illustrates, in accordance with embodiments herein, the role of LKB1 in the sensitivity of […] to AZD1775. The H2030 cell line was transfected with either a rescue copy of LKB1 (“LKB1”) or a copy of LKB1 with a non-functional kinase domain (“KDLKB1”) that produces non-functional LKB1.
Next, referring to FIGS. 2A-2C, the LKB1 deficient lines discussed above in reference to FIGS. 1A and 1B were assessed for percent viability in the presence of increasing concentrations of AZD1775. Moreover, as all three cell lines were already LKB1 deficient, the inventors wanted to elucidate the role of LKB1 in the sensitivity of these cells to AZD1775. As such, each cell line with transfected with either a rescue copy of LKB1 (referred to as “LKB1” in these figures) or a copy of LKB1 with a non-functional kinase domain (referred to as KDLKB1 in these figures), which would produce non-functional LKB1.

The subject of experiment [3] is LKB1 deficient cells (A427, A549, and H2030). Nature of the experiment: Viability of KRas mutant NSCLC adenocarcinoma cell lines at various concentrations of AZD1775 (FIGS. 1A, 1B). Conditions: LKB1 deficient cells compared with the other KRas mutant NSCLC cell lines. It counts as cell-based, human. An excerpt: Referring to FIGS. 1A and 1B, the inventors assessed the impact of various concentrations of a G2/M checkpoint inhibitor (i.e., Wee1 kinase inhibitor-AZD1775) on various cell lines with different genetic backgrounds. All of the cell lines tested in FIGS. 1A and 1B where KRas mutant, some of the cell lines were p53 mutants, and some of the cell lines (i.e., A427, A549, and H2030) were LKB1 deficient. All cell lines were adenocarcinoma from patients with NSCLC.

Another experiment has as its system A427 cell line. In words: Percent viability with AZD1775, LKB1 rescue vs KDLKB1 transfection (FIG. 2A). It counts as cell-based, human. Conditions: A427 cells with rescue copy of LKB1 compared to control KDLKB1 (non-functional kinase). Here is the method:
FIG. 2A illustrates, in accordance with embodiments herein, the role of LKB1 in the sensitivity of A427 cells to AZD1775. The A427 cell line was transfected with either a rescue copy of LKB1 (“LKB1”) or a copy of LKB1 with a non-functional kinase domain (“KDLKB1”) that produces non-functional LKB1. […] Next, referring to FIGS. 2A-2C, the LKB1 deficient lines discussed above in reference to FIGS. 1A and 1B were assessed for percent viability in the presence of increasing concentrations of AZD1775. Moreover, as all three cell lines were already LKB1 deficient, the inventors wanted to elucidate the role of LKB1 in the sensitivity of these cells to AZD1775. As such, each cell line with transfected with either a rescue copy of LKB1 (referred to as “LKB1” in these figures) or a copy of LKB1 with a non-functional kinase domain (referred to as KDLKB1 in these figures), which would produce non-functional LKB1.

The subject of experiment [4] is H2030 cells (KRas mutant and LKB1 deficient). In words: Viability with AZD1775 combined with cisplatin, pemetrexed or gemcitabine (FIGS. 3A-3C). It counts as cell-based, human. Conditions: AZD1775 alone. Here is the method:
Similar to the previous experiments, H2030 cells (KRas mutant and LKB1 deficient) were transfected with a rescue copy of LKB1 or a version of LKB1 with a non-functional kinase domain that produces non-functional LKB1 protein. Moreover, these different cells were treated with AZD1775 (also referred to as MK1775) in combination with cisplatin (FIG. 3A), pemetrexed (FIG. 3B), or gemcitabine (FIG. 3C).

Each structure is given as a SMILES string.

Regarding `N.N.[Cl][Pt][Cl]` [Cisplatin], the median survival rate in experiment [1] stood at 12 weeks.

In the case of `C=CCn1c(=O)c2cnc(Nc3ccc(N4CCN(C)CC4)cc3)nc2n1-c1cccc(C(C)(C)O)n1` [AZD1775], the “sensitivity to AZD1775 as measured by percent viability” value (with A549 cell line; in experiment [2]; in the experiment with H2030 cell line; with A427 cell line) was “less sensitive” each time. Further, in the experiment with A549 and H2030 cells (LKB1 (rescue) cells), the “phosphorylated AMPK” value is recorded as “increased amounts of phosphorylated AMPK”. The “phosphorylated H2AX (indicator of DNA damage)” value in the experiment on A549 and H2030 cells (LKB1-deficient cells) is recorded as “increased amount of phosphorylated H2AX”. The EC50 values entry in experiment [3] (FIG. 1B) is “lowest EC50 values”. In experiment [3] (increasing concentrations of AZD1775, FIG. 1A), the viability result is “greatest reduced viability”. In experiment [4], the cell viability entry was “negative impact on cell viability”.
